Measured values: PubChem BioAssay AID1963426 (Molecular Pharmacology Branch, DTP, NCI, 2024)
Where “and” joins values, the source holds several entries; their conditions need not be identical. Equal entries are not always repeated.

System: 186277-243-T-J2-PDC complex spheroid growth, % test/control
Test: Anticancer human tumor 186277-243-T-J2-PDC patient-derived colon adenocarcinoma cell line growth inhibition [Asc]
Conditions: for viability, T/C: stronger effect = lower value
Method in brief: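 Spheroid model: tumor line + HUVEC + hMSC. Single agents and combinations; top conc. at/near clinical Cmax (10 microM if undetermined), half-log dilutions. DMSO stocks at 800-fold test concentration.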

[1] = curve of first compound, second compound 0.03 µM
[2] = curve of first compound, second compound 0.0949 µM
[3] = curve of first compound, second compound 0.3 µM
[4] = curve of first compound, second compound 0.949 µM
[5] = curve of first compound, second compound 3 µM
[6] = second compound 0.03 µM, first compound 0.00316 µM
[7] = second compound 0.03 µM, first compound 0.01 µM
[8] = second compound 0.03 µM, first compound 0.0316 µM
[9] = second compound 0.03 µM, first compound 0.1 µM
[10] = second compound 0.0949 µM, first compound 0.00316 µM
[11] = second compound 0.0949 µM, first compound 0.01 µM
[12] = second compound 0.0949 µM, first compound 0.0316 µM
[13] = second compound 0.0949 µM, first compound 0.1 µM
[14] = second compound 0.3 µM, first compound 0.00316 µM
[15] = second compound 0.3 µM, first compound 0.01 µM
[16] = second compound 0.3 µM, first compound 0.0316 µM
[17] = second compound 0.3 µM, first compound 0.1 µM
[18] = second compound 0.949 µM, first compound 0.00316 µM
[19] = second compound 0.949 µM, first compound 0.01 µM
[20] = second compound 0.949 µM, first compound 0.0316 µM
[21] = second compound 0.949 µM, first compound 0.1 µM
[22] = second compound 3 µM, first compound 0.00316 µM
[23] = second compound 3 µM, first compound 0.01 µM
[24] = second compound 3 µM, first compound 0.0316 µM
[25] = second compound 3 µM, first compound 0.1 µM
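Note: spheroids exposed to agents for 7 days.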
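Throughout, for viability, T/C: 100% = DMSO vehicle control wells.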

Compound `O=C(c1ccc(F)c(F)c1Nc1ccc(I)cc1F)N1CC(O)([C@@H]2CCCCN2)C1` + CCN1C(C(=O)NC23CCC(C(=O)O)(CC2)CC3)C(c2cccc(Cl)c2F)C2(C(=O)Nc3cc(Cl)ccc32)C12CCCCC2 has an IC50 [1] of 72.8 nM, an IC50 [2] of 54.1 nM and an IC50 [3] of 14.1 nM. For the same compound, the IC50 [4] was 4.49 nM, the IC50 [5] was < 3.16 nM and the viability, T/C [6] was 119%. It also gave a viability, T/C [7] of 105%, a viability, T/C [8] of 96.8% and a viability, T/C [9] of 32.2%. The viability, T/C (second compound 0.03 µM, first compound 0.316 µM) was 6.54%, the viability, T/C (second compound 0.03 µM, first compound 1 µM) was 3.48% and the viability, T/C [10] was 90%. It also gave a viability, T/C [11] of 96%, a viability, T/C [12] of 75.8% and a viability, T/C [13] of 20%. For the same compound, the viability, T/C (second compound 0.0949 µM, first compound 0.316 µM) was 3.92%, the viability, T/C (second compound 0.0949 µM, first compound 1 µM) was 1.51% and the viability, T/C [14] was 66.6%. It also gave a viability, T/C [15] of 61.9%, a viability, T/C [16] of 22.6% and a viability, T/C [17] of 5.9%. It also gave a viability, T/C (second compound 0.3 µM, first compound 0.316 µM) of 1.93%, a viability, T/C (second compound 0.3 µM, first compound 1 µM) of 1.43% and a viability, T/C [18] of 52.2%. For the same compound, the viability, T/C [19] was 45%, the viability, T/C [20] was 19% and the viability, T/C [21] was 5.17%. The viability, T/C (second compound 0.949 µM, first compound 0.316 µM) was 4.44%, the viability, T/C (second compound 0.949 µM, first compound 1 µM) was 2.55% and the viability, T/C [22] was 31.5%. The viability, T/C [23] was 26.7%, the viability, T/C [24] was 11.9% and the viability, T/C [25] was 4.93%. For the same compound, the viability, T/C (second compound 3 µM, first compound 0.316 µM) was 3.83% and the viability, T/C (second compound 3 µM, first compound 1 µM) was 3.31%.

`Cn1ncnc1[C@H]1c2n[nH]c(=O)c3cc(F)cc(c23)N[C@@H]1c1ccc(F)cc1` was tested, and the viability, T/C (compound 0.000316 µM) was 93% and 95.2% and 74.1%, the viability, T/C (compound 0.001 µM) was 99.3% and 88.2% and 97.6% and the viability, T/C (compound 0.00316 µM) was 108% and 104% and 99.5%. The viability, T/C (compound 0.01 µM) was 116% and 118% and 84.3%, the viability, T/C (compound 0.0316 µM) was 118% and 122% and 108% and the viability, T/C (compound 0.1 µM) was 111% and 134% and 100%. The IC50 (curve of compound) was > 100 nM.

With `Cn1ncnc1[C@H]1c2n[nH]c(=O)c3cc(F)cc(c23)N[C@@H]1c1ccc(F)cc1` + CCN1C(C(=O)NC23CCC(C(=O)O)(CC2)CC3)C(c2cccc(Cl)c2F)C2(C(=O)Nc3cc(Cl)ccc32)C12CCCCC2 the IC50 [1] was > 100 nM, the IC50 [2] was > 100 nM and the IC50 [3] was > 100 nM. The IC50 [4] was 2.14 nM, the IC50 [5] was < 0.316 nM and the viability, T/C (second compound 0.03 µM, first compound 0.000316 µM) was 130%. For the same compound, the viability, T/C (second compound 0.03 µM, first compound 0.001 µM) was 116%, the viability, T/C [6] was 107% and the viability, T/C [7] was 91.3%. It also gave a viability, T/C [8] of 80.9%, a viability, T/C [9] of 87.2% and a viability, T/C (second compound 0.0949 µM, first compound 0.000316 µM) of 98.3%. The viability, T/C (second compound 0.0949 µM, first compound 0.001 µM) was 82.1%, the viability, T/C [10] was 87.6% and the viability, T/C [11] was 77.5%. For the same compound, the viability, T/C [12] was 76.5%, the viability, T/C [13] was 65.8% and the viability, T/C (second compound 0.3 µM, first compound 0.000316 µM) was 75%. For the same compound, the viability, T/C (second compound 0.3 µM, first compound 0.001 µM) was 69%, the viability, T/C [14] was 65.9% and the viability, T/C [15] was 63.6%. For the same compound, the viability, T/C [16] was 63.1%, the viability, T/C [17] was 59.3% and the viability, T/C (second compound 0.949 µM, first compound 0.000316 µM) was 52.4%. The viability, T/C (second compound 0.949 µM, first compound 0.001 µM) was 56.5%, the viability, T/C [18] was 49.4% and the viability, T/C [19] was 43%. For the same compound, the viability, T/C [20] was 42%, the viability, T/C [21] was 41.4% and the viability, T/C (second compound 3 µM, first compound 0.000316 µM) was 30.1%. It also gave a viability, T/C (second compound 3 µM, first compound 0.001 µM) of 32.3%, a viability, T/C [22] of 31.9% and a viability, T/C [23] of 26%. For the same compound, the viability, T/C [24] was 22.9% and the viability, T/C [25] was 25.8%.

For `NC1CCC(NC2CC2c2ccccc2)CC1` (configuration not stated) + Cc1c(S(C)(=O)=O)c(-c2cc(F)cc(N3CCN(c4ccc(NS(=O)(=O)c5ccc(NC(CCN6CCC(C(=O)OCCCP(=O)(O)O)CC6)CSc6ccccc6)c(S(=O)(=O)C(F)(F)F)c5)cc4)CC3)c2)c(-c2ccc(Cl)cc2)n1C(C)C, the IC50 (curve of first compound, second compound 0.1 µM) was > 100 nM, the IC50 (curve of first compound, second compound 0.316 µM) was > 100 nM and the IC50 (curve of first compound, second compound 1 µM) was > 100 nM. For the same compound, the IC50 (curve of first compound, second compound 3.16 µM) was > 100 nM, the IC50 (curve of first compound, second compound 10 µM) was > 100 nM and the viability, T/C (second compound 0.1 µM, first compound 0.000316 µM) was 102%. For the same compound, the viability, T/C (second compound 0.1 µM, first compound 0.001 µM) was 102%, the viability, T/C (second compound 0.1 µM, first compound 0.00316 µM) was 96.9% and the viability, T/C (second compound 0.1 µM, first compound 0.01 µM) was 94.8%. For the same compound, the viability, T/C (second compound 0.1 µM, first compound 0.0316 µM) was 94.4%, the viability, T/C (second compound 0.1 µM, first compound 0.1 µM) was 91.3% and the viability, T/C (second compound 0.316 µM, first compound 0.000316 µM) was 124%. For the same compound, the viability, T/C (second compound 0.316 µM, first compound 0.001 µM) was 94.3%, the viability, T/C (second compound 0.316 µM, first compound 0.00316 µM) was 111% and the viability, T/C (second compound 0.316 µM, first compound 0.01 µM) was 104%. The viability, T/C (second compound 0.316 µM, first compound 0.0316 µM) was 89.9%, the viability, T/C (second compound 0.316 µM, first compound 0.1 µM) was 78.1% and the viability, T/C (second compound 1 µM, first compound 0.000316 µM) was 99.8%. It also gave a viability, T/C (second compound 1 µM, first compound 0.001 µM) of 103%, a viability, T/C (second compound 1 µM, first compound 0.00316 µM) of 113% and a viability, T/C (second compound 1 µM, first compound 0.01 µM) of 93%. For the same compound, the viability, T/C (second compound 1 µM, first compound 0.0316 µM) was 96.7%, the viability, T/C (second compound 1 µM, first compound 0.1 µM) was 89% and the viability, T/C (second compound 3.16 µM, first compound 0.000316 µM) was 103%. The viability, T/C (second compound 3.16 µM, first compound 0.001 µM) was 104%, the viability, T/C (second compound 3.16 µM, first compound 0.00316 µM) was 100% and the viability, T/C (second compound 3.16 µM, first compound 0.01 µM) was 92.1%. The viability, T/C (second compound 3.16 µM, first compound 0.0316 µM) was 95.6%, the viability, T/C (second compound 3.16 µM, first compound 0.1 µM) was 91.3% and the viability, T/C (second compound 10 µM, first compound 0.000316 µM) was 98.3%. It also gave a viability, T/C (second compound 10 µM, first compound 0.001 µM) of 101%, a viability, T/C (second compound 10 µM, first compound 0.00316 µM) of 97.8% and a viability, T/C (second compound 10 µM, first compound 0.01 µM) of 92.8%. For the same compound, the viability, T/C (second compound 10 µM, first compound 0.0316 µM) was 97.8% and the viability, T/C (second compound 10 µM, first compound 0.1 µM) was 98%.
